Here are results for five compounds from patent publication US20250388534A1 (SHENZHEN SHINEHIGH INNOVATION CO., LTD., priority 2022, published 2025).

One data set deals with melanoma cells (B16). The data set is described as follows: Cytotoxicity test by melanoma cells (B16). It counts as cell-based. As to conditions: PC 10% DMSO.
The nature of data set [1]: ABTS+⋅ scavenging rate determination. As to conditions: 50 to 250 μg/mL, FIG. 7. On the procedure: (§1) The DPPH⋅ radical scavenging rate and ABTS^+⋅ scavenging rate are measured, and the test methods are as follows.
ABTS^+⋅ scavenging rate determination: ABTS solution (7 mmol/L) and potassium persulfate solution (2.45 mmol/L) are mixed in a 1:1 (v/v) ratio and shaken to prepare the ABTS stock solution, which is allowed to sit at room temperature for 12 h to 16 h (protected from light). Then, the ABTS stock solution is diluted with a phosphate buffer solution of 10 mmol/L and pH 7.4, and the absorbance A0 of the diluted solution is measured at a wavelength of 734 nm, aiming to reach 0.70±0.002. For each sample solution at different mass concentrations, 50 μL is taken and mixed with 750 μL of the ABTS assay solution. The mixture is thoroughly mixed and allowed to react for 6 min. The absorbance is measured at a wavelength of 734 nm as A1, with an absolute ethanol solution used in place of the ABTS solution to measure the absorbance as A2. VC is used as a positive control during the test, and the calculation of the ABTS^+⋅ scavenging rate follows Formula (2).

Data set [2] can be described thus: DPPH⋅ radical scavenging rate determination. As to conditions: 50 to 250 μg/mL, FIG. 6. As for the experimental part: as §1
DPPH⋅ radical scavenging rate determination: For each sample solution at different mass concentrations, 0.2 mL is taken and mixed with 0.8 mL of a 60 μmol/L DPPH⋅ solution (prepared with absolute ethanol). The mixture is then reacted for 30 min in the dark, and the absorbance is measured at a wavelength of 517 nm as A1. The absorbance using 70% ethanol solution instead of the sample is measured as A0, and the absorbance using absolute ethanol instead of the DPPH⋅ solution is measured as A2. VC is used as a positive control during the test. The calculation of the DPPH⋅ radical scavenging rate is shown in Formula (2): […]

The subject of a further data set is IL-1α. The data set is described as follows: TPA-induced mouse ear edema model, IL-1α in ear tissue by ELISA. The note with it: salt 0.8 mg/ear, mandelic acid 0.39 mg/ear. The format is in vivo, mice. As for the experimental part: (§2) TPA-induced mouse ear edema model and administration method. Male KM mice of SPF grade weighing 20 g to 23 g are acclimatized at a temperature of 25° C. and a relative humidity of 40% to 70% for 24 h (12 h each under alternating light and dark conditions), and given sufficient food and water to allow them to eat freely. The mice are randomly divided into 6 groups: blank group (BC), negative control group (NC), positive control group (PC), and 2 treatment groups. […] After 6 h, the mice are immediately killed by breaking their necks. The ear tissues are ground in liquid nitrogen, then ground tissues are transferred to a 4 mL EP tube, and 1 mL of T-PER tissue protein extraction reagent is added. The solution is mixed thoroughly for about 30 min, and then subjected to intermittent sonication for 10 s at 20 Hz, followed by 2 min of ultrasonic treatment to fully lyse the ear tissues. The mixture is centrifuged at 4° C. and 13000 r/min for 20 min. Supernatants are collected to determine the levels of the inflammatory factors IL-1α, TNF-α, and MIP-2 in ear tissues using the ELISA method.

The subject of data set [3] is chick embryo chorioallantoic membrane (CAM). The data set is described as follows: Eye irritation/corrosion chick embryo chorioallantoic membrane assay (irritation score IS). On the procedure:
The test method is as follows.
Preparation of CAM: The viability of 9-day-old chick embryos is checked using fertilized eggs. The shell of the air cell is removed using dental serrated forceps to expose the white egg membrane, with care taken to avoid damaging the integrity of the membrane. A drop of 0.9% sodium chloride solution is added with a pipette to moisten the membrane. The inner membrane is carefully removed with forceps, ensuring that the vascular membrane is not damaged. At this point, the structure of the vascular system is observed again, and a judgment is made regarding its integrity and suitability for the test.
Pre-test: Two chick embryos are taken to assess the reactivity of this batch, with the duration of action limited to within 5 min. […]
Reaction evaluation method: 0.3 mL or 0.3 g of the test substance is applied to the CAM, ensuring that at least 50% of the CAM surface is covered by the test substance. The reaction of the CAM is observed, and the time at which each type of toxicity effect appears within 5 min of application is recorded.
The irritation score (IS) is a test conducted using the reaction time method, with the irritation score (IS) calculated using Formula (3), and the results are retained to two decimal places: […]
secH (bleeding time) refers to the average time observed for bleeding to begin on the CAM membrane, measured in seconds(s). secL (vascular lysis time) refers to the average time observed for vascular lysis to begin on the CAM membrane, measured in seconds(s). secC (clotting time) refers to the average time observed for clotting to begin on the CAM membrane, measured in seconds(s).

Data set [4] can be described thus: Thermogravimetric analysis of thermal decomposition behavior. It counts as physicochemical. As to conditions: heating rate 5.0 K/min, FIG. 2.
The subject of the next data set is MIP-2. The data set is described as follows: TPA-induced mouse ear edema model, MIP-2 in ear tissue by ELISA. As to conditions: salt 0.8 mg/ear, mandelic acid 0.39 mg/ear. It counts as in vivo, mice. On the procedure: as §2
Another data set concerns TNF-α. As to the kind of experiment: TPA-induced mouse ear edema model, TNF-α in ear tissue by ELISA. It counts as in vivo, mice. The note with it: salt 0.8 mg/ear, mandelic acid 0.39 mg/ear. On the procedure: as §2
Another data set relates to tyrosinase. The data set is described as follows: In vitro tyrosinase inhibition assay (T-SHRH015-2018). It counts as biochemical. As to conditions: for Cellular tyrosinase activity inhibition (%): in vitro tyrosinase inhibition assay. On the procedure: (§3) And the cellular melanin content, tyrosinase activity, and tyrosinase inhibition rate are tested within a safe concentration.

The subject of data set [5] is melanin synthesis in B16 cells. As to the kind of experiment: Inhibition of melanin synthesis in B16 cells (T/SHRH027-2019). It counts as cell-based. As for the experimental part: as §3
The target of another data set is T1, cellular tyrosinase (Mus musculus, UniProt P11344).
T1 construct: endogenous in cells; host or cells: B16 melanoma cells
T1 sequence (P11344 19-533): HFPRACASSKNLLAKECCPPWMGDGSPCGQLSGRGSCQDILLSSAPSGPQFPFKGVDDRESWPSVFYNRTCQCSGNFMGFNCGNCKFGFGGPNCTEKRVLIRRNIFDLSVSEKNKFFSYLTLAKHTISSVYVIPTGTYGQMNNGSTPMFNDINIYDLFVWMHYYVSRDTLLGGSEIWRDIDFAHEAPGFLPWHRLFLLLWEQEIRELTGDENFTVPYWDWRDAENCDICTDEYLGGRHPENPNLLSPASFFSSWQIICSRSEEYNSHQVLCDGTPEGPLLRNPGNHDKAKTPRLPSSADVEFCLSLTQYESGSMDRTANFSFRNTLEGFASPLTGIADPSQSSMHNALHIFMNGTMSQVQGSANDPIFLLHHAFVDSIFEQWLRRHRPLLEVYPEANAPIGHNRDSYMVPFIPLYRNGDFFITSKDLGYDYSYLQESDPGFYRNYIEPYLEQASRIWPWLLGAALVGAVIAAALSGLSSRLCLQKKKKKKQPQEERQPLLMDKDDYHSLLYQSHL
As to the kind of experiment: Cellular tyrosinase activity inhibition assay in B16 cells. The format is cell-based. On the procedure: as §3

Setting [6] is: mean of R1-R3, mouse ear tissue 6 h after TPA 2.0 μg/ear.
Where [7] appears, read: mouse ear tissue, 6 h after TPA.
The mark [8] stands for this setting: replicate R1, mouse ear tissue 6 h after TPA 2.0 μg/ear.
The mark [9] stands for this setting: replicate R3, mouse ear tissue 6 h after TPA 2.0 μg/ear.
Where [10] appears, read: reaction time method, single chick embryos 1-6, in s.
The mark [11] stands for this setting: 0.0006%, 0.0012%, 0.002% (m/V), p<0.05 vs blank control.

Several values for one entry are separate records, joined by “and”; a condition that tells them apart may be missing. Equal entries are not always repeated.

For the compound `C[S+](C)[O-]` [DMSO], the “Cell viability (%)” value with melanoma cells (B16) was 40.26% and 39.46%.
On to `O=C1O[C@H]([C@@H](O)CO)C(O)=C1O` [VC], for which, in [1], the “ABTS+⋅ scavenging effect (ranking)” value is “best scavenging effect”. In addition, the “DPPH⋅ radical scavenging effect (ranking)” value in [2] is recorded as “best scavenging effect”.
Consider `O=C(O)C(O)c1ccccc1` (centres unmarked) [mandelic acid, a-hydroxyphenylacetic acid], for which the “IL-1α Concentration” value in the data set on IL-1α (setting [6]) was found to be 28.51 µg/mL. Further, the “level of IL-1α compared with the negative control group” value with IL-1α (setting [7]) is recorded as “decrease”. The “IL-1α concentration, R1” value in the data set on IL-1α (setting [8]) amounted to 28.59 µg/mL. For the same compound, in the data set on IL-1α (setting [9]), the “IL-1α concentration, R3” value came to 29.31 µg/mL. In addition, the “ABTS+⋅ scavenging effect (ranking)” value in [1] was “weakest effect”. Moreover, in [3] (2% aqueous solution of the salt, equivalent molar mandelic acid solution, CAM assay), the irritation classification entry is “mild irritation”. Also, in [3] (overall irritation score of 6 chick embryos), the “Test result: IS” value is reported as “IS = 1.03”. Besides, the Bleeding severity score in [3] (reaction time method, single chick embryos 1-6) was determined as 301 s. In data set [3] (setting [10]), the Coagulation score is 301 and 290 and 250; the Vascular lysis score is 260 and 280 and 290 and 301 and 210. Also, the “temperature at which thermal decomposition behavior begins” value in data set [4] was roughly 135 °C. Also, the “MIP-2 Concentration” value with MIP-2 (setting [6]) stood at 50.82 µg/mL. Further, in the data set on MIP-2 (setting [7]), the “level of MIP-2 compared with the negative control group” value is reported as “decrease”. Further, the “MIP-2 concentration, R1” value in the data set on MIP-2 (setting [8]) came to 51.32 µg/mL. The “MIP-2 concentration, R3” value in the data set on MIP-2 (setting [9]) was found to be 50.98 µg/mL. Moreover, the “DPPH⋅ radical scavenging effect (ranking)” value in data set [2] was “weakest effect”. Also, in the data set on TNF-α (setting [6]), the “TNF-α Concentration” value amounted to 85.98 µg/mL. Further, the “level of TNF-α compared with the negative control group” value with TNF-α (setting [7]) was “decrease”. The “TNF-α concentration, R1” value with TNF-α (setting [8]) was found to be 85.34 µg/mL. For the same compound, the “TNF-α concentration, R3” value in the data set on TNF-α (setting [9]) came out at 88.27 µg/mL.
As for `NC[C@H]1CC[C@H](C(=O)O)CC1` [tranexamic acid], the “temperature at which thermal decomposition behavior begins” value in data set [4] is “around 77 °C”.
With “supramolecular tranexamic acid-citric acid ionic salt [Comparative Example 1]”, the “Cellular tyrosinase activity inhibition (%)” value in the data set with tyrosinase (0.625 % m/V) is given as 5.36%; in the data set with tyrosinase (1.25 % m/V), 60.49%; with tyrosinase (2.50 % m/V) it was 65.38%; in the data set on tyrosinase (5 % m/V) it was 67.57%; in the data set with tyrosinase (10 % m/V), 69.99%; at cellular tyrosinase (0.0006% m/V), 2.17%. Further, the figures for the “Cellular tyrosinase activity inhibition (%)” value at cellular tyrosinase (0.0012% m/V) and at cellular tyrosinase (0.0020% m/V) were 10.05% and 11.26%, respectively. In addition, the “inhibition rate on tyrosinase” value with tyrosinase (in vitro, concentrations of 1.25 to 10% (m/V)) is recorded as “above 60%”. Moreover, the “Inhibition rate of cell melanin content (%)” value in data set [5] (0.0006% m/V) was 15.32%; in data set [5] (0.0012% m/V), 18.19%; in data set [5] (0.0020% m/V), 22.51%. Besides, in [5] (setting [11]), the “effect on cell melanin synthesis ability” value is “had an inhibitory effect on the cell melanin synthesis ability”. In addition, at cellular tyrosinase (setting [11]), the “effect on cellular tyrosinase activity” value was “had an inhibitory effect on cellular tyrosinase activity”.
